Data set [1] in a line: Aqueous kinetic solubility measurement. In kind it is physicochemical. How it is done:
Compounds were evaluated for their kinetic solubility in buffer or water. Aliquots of 8 μL of reference and test compound stock solutions (10 mM in DMSO) were added into 792 μL of 100 mM phosphate buffer (0.1 M NaPO4, pH 7.4). Final DMSO concentration is 1%. The sample tubes were shaken for 1 hour (1000 rpm) at room temperature. A calibration curve was prepared using 300 μM spiking solution (SS) in MeOH/ACN(4:1) (SS=add 6 μL 10 mM compound in 194 μL MeOH/ACN(4:1)). Samples were centrifuged for 10 min (12000 rpm) to precipitate undissolved particles, and the supernatants were transferred to a new tube or plate. Supernatants were diluted 10 times and 100 times with 100 mM buffer. Samples were then prepared for analysis by LC-MS/MS (Add 5 μL of compound samples (not diluted, 10 times diluted and 100 times diluted) and standard curve samples to 95 μL of ACN containing internal standard. Internal standards used are Propranolol, Ketoconazole, and Tamoxifen.

In data set [2] the test system is dendritic spines of CA1 pyramidal neurons, dorsal hippocampus. In words: Dendritic spine morphology in dorsal hippocampus (CA1) after 14 days of oral treatment. The format is in vivo, wild type mice (C57BL/6J). As to conditions: for Thin Spines (% increase over vehicle) / Total Spines (% increase over vehicle): 14 days, WT mice; for dendritic spine density (in words, earlier studies): Compound 2 at 1, 3, 6 and 20 mg/kg/day, Compound 1 at 10 mg/kg/day. How it is done:
Compounds were evaluated to determine whether sub-chronic treatment could produce changes in dendritic spine morphology in the CA1 region of the dorsal hippocampus in wild type (WT) mice. Compounds were administered orally to wild type mice, daily for 14 days. Doses were chosen based on pharmacokinetic data, brain exposure, and potency. Effects of compounds treatments on dendritic spine morphology in the CA1 region of the dorsal hippocampus were then evaluated.
Male C57BL/6J mice (7-8-weeks old, n=7 per group) were dosed orally with Rodin compounds or vehicle (20% HPßCD) daily for 14 days. Doses for compounds were chosen based on exposure data from pharmacokinetic experiments. […] Mice were sacrificed 24 hours after the last dose, and underwent transcardial perfusion for preparation of brain samples.
Mice were anesthetized with chloral hydrate (4% chloral hydrate in saline, 10 ml/kg) before undergoing transcardial perfusion with 4% PFA in 1×PBS (pH7.4, room temperature) at 20 mL/min for 54 seconds. Immediately after the perfusion, mice were decapitated and their brain extracted. Brains were postfixed in scintillation vials containing 4% PFA (5-10 ml) for 4 min. Brains were sectioned using a tissue vibratome (Leica VT1000) to collect sections (300 μm thick) from the anterior to posterior extremes of each brain.
Superresolution laser-scanning confocal microscopy (Zeiss LSM880, Airyscan) was performed using a 63× objective (1.42 NA) to scan individually labeled neurons at high resolution (scan resolution=0.06 um μm/pixel; axial resolution=0.06 um μm/focal step). Target neurons were identified in the brain region of interest by epifluorescence navigation using anatomical location and cell morphology. Microscopy was performed blind to experimental conditions. A minimum of 7 mice were tested in each experimental condition. A minimum of 5 samples per mouse (range=5-6) were measured for each segment.
Blind deconvolution (AutoQuant) was applied to raw three-dimensional digital images which were then analyzed for spine density and morphology by trained analysts. Individual spines were measured manually for (a) head diameter, (b) length, and (c) neck thickness from image Z-stacks using custom-built Afraxis ESP software. Each dendrite was analyzed by 3 (on average) independent analysts. Automated image assignment software distributed images to analysts in a randomized manner and ensured that each analyst performed measurements of near equal numbers of dendrites per group. Analysts were blinded to all experimental conditions (including treatment, brain region, and cell type).
Each identified dendritic spine was measured for (a) spine length, (b) spine head diameter, and (c) neck width. Population distributions of each measure were compiled for each dendritic sample and pooled by group. Raw dendritic spine morphometric values (spine length, head diameter, neck width) were assembled into a scheme used to describe classic spine phenotypes (e.g. mushroom, stubby, etc.). Total spine density was also reported as the sum of the density of all subclasses.
General Observations. […] For adequate study to study comparisons, total spine density data were normalized to % vehicle levels
[formula] Data were then reported as mean+/−SEM of total spine density (% increase from Vehicle).

SMILES strings stand for the structures. ≈ marks a conversion by molar mass, not a printed value.

In the case of `COCc1cc2c(cn1)CN(C(=O)Nc1nc(-c3ccc(F)cc3F)ccc1N)C2` [Compound 1], the “solubility (in words)” value in data set [1] is on record as “slightly reduced”. Besides, the solubility (as a rule, the dissolved amount per volume that the medium holds) at 1 h in data set [1] (aqueous buffer, kinetic from dmso stock, kinetic, 100 mM phosphate buffer pH 7.4, 1% DMSO) is 27 µM (≈ 11.1 µg/mL). Also, the “Thin Spines (% increase over vehicle)” value in data set [2] (0.1 mg/kg PO daily) is listed as 13.8%; in data set [2] (0.3 mg/kg PO daily), 23.2%; in data set [2] (1 mg/kg PO daily) it was 45.1%; in data set [2] (3 mg/kg PO daily) it was 25.3%; in data set [2] (10 mg/kg PO daily), 19.9%. The “Total Spines (% increase over vehicle)” value worked out at 12.2% in data set [2] (0.1 mg/kg PO daily); 21.3% in data set [2] (0.3 mg/kg PO daily); 34.6% in data set [2] (1 mg/kg PO daily); 26.7% in data set [2] (3 mg/kg PO daily); 25.1% in data set [2] (10 mg/kg PO daily). For the same compound, in data set [2], the “dendritic spine density (in words, earlier studies)” value is on record as “increases in dendritic spine density”.
In the case of `Cc1ncc2c(n1)CN(C(=O)Nc1nc(-c3cccs3)ccc1N)C2` [Compound 2], the “Thin Spines (% increase over vehicle)” value in data set [2] (0.1 mg/kg PO daily) is 11.3%; in data set [2] (1 mg/kg PO daily), 21.2%; in data set [2] (3 mg/kg PO daily) it was 32.2%; in data set [2] (6 mg/kg PO daily), 35.4%; in data set [2] (20 mg/kg PO daily) it was 37.4%. The “Total Spines (% increase over vehicle)” value was 8.1% in data set [2] (0.1 mg/kg PO daily); 21.4% in data set [2] (1 mg/kg PO daily); 24.7% in data set [2] (3 mg/kg PO daily); 15% in data set [2] (6 mg/kg PO daily); −0.12% in data set [2] (20 mg/kg PO daily). The “dendritic spine density (in words, earlier studies)” value in data set [2] is recorded as “increases in dendritic spine density”.
